Reference: patent EP1762248A1, “Use of cobalt porphyrins in joint therapy with an immunosuppressant drug for treatment of transplant patients or autoimmune disorders” (CORIT Consorzio per la Ricerca sul, priority 2005, dated 2007)
Where two headings read alike, the source gives them in different places.

Tests used:
PAEC cells = experiment: Proliferation of PAEC cells by CFSE labelling and cytofluorometric analysis; type: cell-based, Pig; settings: CoPP alone, various concentrations; versus untreated PAEC controls (figure 1)
Description: Two in vitro experimental models have been used.
CFSE is a non-fluorescent dye which diffuses passively into the cell cytoplasm. Once inside the cytoplasm, the dye is cleaved by intracellular esterases, thus becoming fluorescent. This binds strongly to cellular proteins and is retained during cellular development. At each cell division stage, CFSE is distributed evenly to daughter cells, with the result that each cellular generation will inherit half of the CFSE content. When analysed by cytofluorimetry, the sequential reduction of CFSE is visualised as distinct peaks corresponding to ever more decreasing fluorescence. PAEC proliferation has been evaluated as a proliferation index, calculated as the sum of the cells in all generations divided by the number of original parental cells (e.g. in the second generation, the parental cells would correspond to the total number of cells in the second generation divided by 2, in the third, divided by 4, because each will have given rise to 2^1, 2^2 cells and so on for each generation).

PBMCs [1] = experiment: Proliferation of concanavalin A activated simian PBMCs by CFSE labelling; type: cell-based, primate; settings: CoPP alone (CsA concentration 0), 96 hours (figure 2)
Description: (§1) By means of staining with the DNA intercalator, PI, it has been possible to evaluate the apoptotic cells as a sub-diploid peak and the cells in the DNA synthesis and duplication stage (S+G2 stage) as peaks with a DNA content greater than or equal to the diploid content. The proliferation index of PBMCs has been evaluated by staining the cells with CFSE at the same time as stimulation.

PBMCs [2] = experiment: Apoptosis analysis of simian PBMCs by PI staining (sub-diploid peak); type: cell-based, primate; settings: CoPP alone; concanavalin A, 96 hours
Protocol: The pellet from each sample has been resuspended in 600 µl of PBS and subsequently, 1.4 ml of absolute ethanol has been added dropwise while shaking continuously. The samples have been left at -20°C overnight. Following fixation, the cells have been washed twice in PBS. The pellet has been resuspended in 500 µl of PI at a concentration of 50 µg/ml, to which 6.25 µl of Nonidet P40 and 8 µl of RNase A (1 mg/ml) have been added. The samples have been shaken vigorously and incubated for at least half an hour in the dark at room temperature. Following incubation, the samples have been analysed using a cytofluorimeter, for cell cycle analysis.
as §1
In order to study apoptosis, the percentage of cells in the sub-diploid stage has been quantified.

HO-1 = settings: paec, 72 h
Description: Equal amounts of protein of each sample have been loaded and separated by electrophoresis on a 12% polyacrylamide gel in the presence of SDS (SDS-PAGE) and then transferred onto a nitrocellulose membrane (Amersham-Pharmacia) by means of electroblotting. […] The specific band has been detected by adding a chemiluminescent substrate followed by exposure to photographic film (ECL-Amersham-Pharmacia). The relative amount of HO-1 protein, normalised to the actin content of each sample, has been determined with the use of a densitometer (Pharmacia).
Following stimulation, HO-1 expression has been assessed by Western Blotting and densitometric analysis of the bands obtained. HO-1 expression is reported as the ratio of the intensity of the bands with respect to the control (table 1). The amount of protein loaded is normalised for actin.

HO-1 expression in PAECs as the ratio of band intensity with respect to the control and normalised for actin (R) (HO-1; 50 µM): 6.0
HO-1 expression in PAECs as the ratio of band intensity with respect to the control and normalised for actin (R) (HO-1; 100 µM): 4.6
Substance: cobalt (III) protoporphyrin [CoPP]
proliferation index of PAECs (PAEC cells): increases the proliferation index in a dose dependent manner
concentration at which PBMC proliferation is inhibited (PBMCs [1]): > 25 µM
apoptosis (cells in the sub-diploid stage) (PBMCs [2]): up to 6%
